Results from patent US20090311217A1, “3-SUBSTITUTED-1H-INDOLE COMPOUNDS, THEIR USE AS MTOR KINASE AND PI3 KINASE INHIBITORS, AND THEIR SYNTHESES” (priority 2008, published 2009).

Legend:
Type in all cases: biochemical
human TOR = target: T1, human TOR (Homo sapiens, UniProt P42345); test: mTOR enzyme assay (DELFIA, His6-S6K substrate); conditions: read-out: mTOR Kinase Avg. IC50
T1 construct: FLAG

PI3K-gamma = PI3K-gamma (Homo sapiens, UniProt P48736); test: PI3K-gamma fluorescence polarization assay; conditions: PI3Kγ Avg. IC50
Chain of PI3K-gamma (P48736 whole entry, species assumed, the tested form may be a part): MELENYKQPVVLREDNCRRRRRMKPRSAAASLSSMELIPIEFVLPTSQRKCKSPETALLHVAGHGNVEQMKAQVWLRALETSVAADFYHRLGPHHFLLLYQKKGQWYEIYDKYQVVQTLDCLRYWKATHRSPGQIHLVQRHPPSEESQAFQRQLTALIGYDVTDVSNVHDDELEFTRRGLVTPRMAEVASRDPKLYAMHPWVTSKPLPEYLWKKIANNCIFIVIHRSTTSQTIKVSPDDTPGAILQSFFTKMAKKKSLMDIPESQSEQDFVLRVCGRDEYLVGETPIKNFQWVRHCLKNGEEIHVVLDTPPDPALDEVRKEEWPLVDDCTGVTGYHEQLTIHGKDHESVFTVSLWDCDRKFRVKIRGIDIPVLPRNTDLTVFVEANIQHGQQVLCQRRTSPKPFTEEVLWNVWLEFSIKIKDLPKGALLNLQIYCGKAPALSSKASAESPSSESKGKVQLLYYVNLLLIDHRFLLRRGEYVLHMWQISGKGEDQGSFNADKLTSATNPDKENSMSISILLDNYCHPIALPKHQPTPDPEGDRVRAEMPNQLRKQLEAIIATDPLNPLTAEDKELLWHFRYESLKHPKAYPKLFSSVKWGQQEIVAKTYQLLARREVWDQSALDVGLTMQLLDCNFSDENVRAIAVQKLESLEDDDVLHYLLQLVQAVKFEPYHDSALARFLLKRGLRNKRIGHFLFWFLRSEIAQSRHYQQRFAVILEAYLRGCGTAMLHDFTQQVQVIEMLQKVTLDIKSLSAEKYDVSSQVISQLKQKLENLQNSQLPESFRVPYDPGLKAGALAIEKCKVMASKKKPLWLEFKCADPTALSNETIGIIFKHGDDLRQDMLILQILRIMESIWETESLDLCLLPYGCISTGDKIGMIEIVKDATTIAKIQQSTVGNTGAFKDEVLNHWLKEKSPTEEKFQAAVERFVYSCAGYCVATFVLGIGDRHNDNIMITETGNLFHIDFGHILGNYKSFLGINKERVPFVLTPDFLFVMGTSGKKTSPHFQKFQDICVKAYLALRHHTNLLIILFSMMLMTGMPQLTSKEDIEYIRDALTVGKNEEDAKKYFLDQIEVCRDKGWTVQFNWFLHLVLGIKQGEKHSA
Outline: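 FP competition read-out: PIP3 produced displaces BODIPY-TMR-IP4 (5 nM) from GST-GRP1 PH domain (100 nM). Kinase step: 5 ng enzyme, 2.5 μM diC8-PIP2, 25 μM ATP, pH 7 HEPES/MgCl2, 1 h, 25° C; EDTA stop.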

PI3K-alpha = PI3K-alpha (Homo sapiens, UniProt P42336); test: PI3K-alpha fluorescence polarization assay; conditions: read-out: PI3Kα Avg. IC50
Chain of PI3K-alpha (P42336 whole entry, species assumed): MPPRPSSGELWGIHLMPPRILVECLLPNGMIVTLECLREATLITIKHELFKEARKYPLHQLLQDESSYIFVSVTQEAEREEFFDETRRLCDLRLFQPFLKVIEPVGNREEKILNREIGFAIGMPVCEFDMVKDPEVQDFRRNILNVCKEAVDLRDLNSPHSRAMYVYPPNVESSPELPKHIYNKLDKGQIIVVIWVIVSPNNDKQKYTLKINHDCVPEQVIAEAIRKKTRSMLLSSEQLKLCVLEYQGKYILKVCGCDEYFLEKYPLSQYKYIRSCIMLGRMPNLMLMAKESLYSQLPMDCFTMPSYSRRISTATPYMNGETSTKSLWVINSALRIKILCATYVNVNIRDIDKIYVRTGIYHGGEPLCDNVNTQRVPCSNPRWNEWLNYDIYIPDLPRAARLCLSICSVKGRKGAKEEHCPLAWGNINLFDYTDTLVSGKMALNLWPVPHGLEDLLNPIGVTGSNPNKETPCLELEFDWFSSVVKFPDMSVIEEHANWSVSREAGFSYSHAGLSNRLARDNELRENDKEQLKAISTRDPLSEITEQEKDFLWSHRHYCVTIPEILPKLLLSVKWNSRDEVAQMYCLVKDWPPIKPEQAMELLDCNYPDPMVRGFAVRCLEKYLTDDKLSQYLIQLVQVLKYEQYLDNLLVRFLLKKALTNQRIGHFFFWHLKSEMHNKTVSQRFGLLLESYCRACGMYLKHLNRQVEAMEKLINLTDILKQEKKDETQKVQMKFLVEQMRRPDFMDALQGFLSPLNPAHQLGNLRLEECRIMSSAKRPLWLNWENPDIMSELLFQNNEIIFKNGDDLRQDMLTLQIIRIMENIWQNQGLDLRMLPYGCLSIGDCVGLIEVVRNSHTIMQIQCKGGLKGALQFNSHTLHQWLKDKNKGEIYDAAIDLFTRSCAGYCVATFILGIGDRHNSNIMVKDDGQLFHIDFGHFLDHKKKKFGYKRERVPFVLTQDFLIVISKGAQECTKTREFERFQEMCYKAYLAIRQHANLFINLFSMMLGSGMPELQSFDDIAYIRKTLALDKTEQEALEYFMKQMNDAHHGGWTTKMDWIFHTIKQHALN
Chain of PI3K-alpha (P27986 whole entry partner, species assumed): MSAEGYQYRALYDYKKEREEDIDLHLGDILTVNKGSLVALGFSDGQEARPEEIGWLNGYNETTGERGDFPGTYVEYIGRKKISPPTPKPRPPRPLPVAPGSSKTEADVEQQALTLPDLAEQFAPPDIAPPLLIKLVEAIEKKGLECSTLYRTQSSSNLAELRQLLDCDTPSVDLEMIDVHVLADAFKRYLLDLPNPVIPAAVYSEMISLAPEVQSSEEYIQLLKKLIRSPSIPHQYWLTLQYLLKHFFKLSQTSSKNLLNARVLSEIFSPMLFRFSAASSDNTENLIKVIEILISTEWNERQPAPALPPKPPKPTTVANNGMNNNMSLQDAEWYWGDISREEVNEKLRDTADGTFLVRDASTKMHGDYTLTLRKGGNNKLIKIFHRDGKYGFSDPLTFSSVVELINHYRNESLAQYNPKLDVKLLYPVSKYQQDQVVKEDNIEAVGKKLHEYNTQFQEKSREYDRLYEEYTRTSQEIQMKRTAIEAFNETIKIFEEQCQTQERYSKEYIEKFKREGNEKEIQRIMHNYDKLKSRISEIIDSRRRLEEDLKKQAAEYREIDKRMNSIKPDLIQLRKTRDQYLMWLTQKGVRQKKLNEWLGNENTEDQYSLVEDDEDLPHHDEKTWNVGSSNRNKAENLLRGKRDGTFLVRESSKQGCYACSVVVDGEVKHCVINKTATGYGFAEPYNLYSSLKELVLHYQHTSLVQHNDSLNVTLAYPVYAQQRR

Structure (SMILES) | IC50 (human TOR) | IC50 (PI3K-gamma) | IC50 (PI3K-alpha)
Cn1cc(/C=C2\Oc3cc(O)cc(O)c3C2=O)c2c(-c3ccoc3)cccc21 [Example 378, (2Z)-2-{[4-(3-Furyl)-1-methyl-1H-indol-3-yl]methylene}-4,6-dihydroxy-1-benzofuran-3(2H)-one] | 0.107 µM | 3.4 µM | 0.971 µM
CC(C)Oc1ccc(-c2cccc3c2c(/C=C2\Oc4cc(O)cc(O)c4C2=O)cn3C)cc1 [Example 381, (2Z)-4,6-dihydroxy-2-{[4-(4-isopropoxyphenyl)-1-methyl-1H-indol-3-yl]methylene}-1-benzofuran-3(2H)-one] | 0.18 µM | 3.95 µM | 2.74 µM
CCOC(=O)c1ccc(-c2cccc3c2c(/C=C2\Oc4cc(O)cc(O)c4C2=O)cn3C)cc1 [Example 382, Ethyl 4-{3-[(Z)-(4,6-Dihydroxy-3-oxo-1-benzofuran-2(3H)-ylidene)methyl]-1-methyl-1H-indol-4-yl}benzoate] | 0.535 µM | 4.68 µM | 2.92 µM
COc1ccc2c(c1)O/C(=C\c1c[nH]c3ccc(OC)cc13)C2=O [Example 384, (2Z)-6-Methoxy-2-[(5-methoxy-1H-indol-3-yl)methylene]-1-benzofuran-3(2H)-one] | > 20 µM | 2.45 µM | > 10 µM
CN(C)CCCNC(=O)c1ccc(-c2cccc3c2c(/C=C2\Oc4cc(O)cc(O)c4C2=O)cn3C)cc1 [Example 387, 4-{3-[(Z)-(4,6-Dihydroxy-3-oxo-1-benzofuran-2(3H)-ylidene)methyl]-1-methyl-1H-indol-4-yl}-N-[3-(dimethylamino)propyl]benzamide] | 0.34 µM | 4.59 µM | 3.52 µM
CC(=O)Nc1cccc(-c2cccc3c2c(/C=C2\Oc4cc(O)cc(O)c4C2=O)cn3C)c1 [Example 388, N-(3-{3-[(Z)-(4,6-Dihydroxy-3-oxo-1-benzofuran-2(3H)-ylidene)methyl]-1-methyl-1H-indol-4-yl}phenyl)acetamide] | 0.2 µM | 3.28 µM | 1.35 µM
Cn1cc(/C=C2\Oc3cc(O)cc(O)c3C2=O)c2c(-c3cccc(O)c3)cccc21 [Example 390, (2Z)-4,6-Dihydroxy-2-{[4-(3-hydroxyphenyl)-1-methyl-1H-indol-3-yl]methylene}-1-benzofuran-3(2H)-one] | 0.09 µM | 2.04 µM | 1.12 µM
CC(C)NC(=O)c1ccc(-c2cccc3c2c(/C=C2\Oc4cc(O)cc(O)c4C2=O)cn3C)cc1 [Example 395, 4-{3-[(Z)-(4,6-dihydroxy-3-oxo-1-benzofuran-2(3H)-ylidene)methyl]-1-methyl-1H-indol-4-yl}-N-isopropylbenzamide] | 0.095 µM | 3.89 µM | 0.582 µM
CN(C)c1cccc(-c2cccc3c2c(/C=C2\Oc4cc(O)cc(O)c4C2=O)cn3C)c1 [Example 398, (2Z)-2-({4-[3-(Dimethylamino)phenyl]-1-methyl-1H-indol-3-yl}methylene)-4,6-dihydroxy-1-benzofuran-3(2H)-one] | 0.111 µM | 5.26 µM | 2.76 µM
Cn1cc(/C=C2\Oc3cccc(O)c3C2=O)c2c(-c3ccccc3)cccc21 [Example 400, (2Z)-4-Hydroxy-2-[(1-methyl-4-phenyl-1H-indol-3-yl)methylene]-1-benzofuran-3(2H)-one] | > 19.5 µM | > 10 µM | > 10 µM
Cn1cc(/C=C2\Oc3cc(O)cc(O)c3C2=O)c2c(-c3ccc(NCCN4CCOCC4)nc3)cccc21 [Example 402, (2Z)-4,6-Dihydroxy-2-[(1-methyl-4-{6-[(2-morpholin-4-ylethyl)amino]pyridin-3-yl}-1H-indol-3-yl)methylene]-1-benzofuran-3(2H)-one] | 0.355 µM | 5.94 µM | 3.74 µM
Cn1cc(/C=C2\Oc3cc(O)cc(O)c3C2=O)c2c(-c3cnn(CCN4CCOCC4)c3)cccc21 [Example 403, (2Z)-4,6-Dihydroxy-2-({1-methyl-4-[1-(2-morpholin-4-ylethyl)-1H-pyrazol-4-yl]-1H-indol-3-yl}methylene)-1-benzofuran-3(2H)-one] | 0.123 µM | 7.71 µM | 1.64 µM

More lines, in order of falling IC50 (human TOR), values ahead:

IC50 (human TOR) | IC50 (PI3K-gamma) | IC50 (PI3K-alpha) | Structure (SMILES)
0.089 µM | 3.26 µM | 0.432 µM | Cn1cc(/C=C2\Oc3cc(O)cc(O)c3C2=O)c2c(-c3ccc(N)nc3)cccc21 [Example 380, (2Z)-2-{[4-(6-Aminopyridin-3-yl)-1-methyl-1H-indol-3-yl]methylene}-4,6-dihydroxy-1-benzofuran-3(2H)-one]
0.0695 µM | 5.78 µM | 1.92 µM | Cn1cc(/C=C2\Oc3cc(O)cc(O)c3C2=O)c2c(-c3ccc(N4CCOCC4)nc3)cccc21 [Example 386, (2Z)-4,6-Dihydroxy-2-{[1-methyl-4-(6-morpholin-4-ylpyridin-3-yl)-1H-indol-3-yl]methylene}-1-benzofuran-3(2H)-one]
0.0695 µM | > 10 µM | 0.805 µM | Cn1cc(/C=C2\Oc3cc(O)cc(O)c3C2=O)c2c(-c3ccc(C(=O)NCc4ccco4)cc3)cccc21 [Example 399, 4-{3-[(Z)-(4,6-dihydroxy-3-oxo-1-benzofuran-2(3H)-ylidene)methyl]-1-methyl-1H-indol-4-yl}-N-(2-furylmethyl)benzamide]
0.069 µM | 4.12 µM | 0.46 µM | CN(C)C(=O)Nc1ccc(-c2cccc3c2c(/C=C2\Oc4cc(O)cc(O)c4C2=O)cn3C)cc1 [Example 394, 3-(4-{3-[(Z)-(4,6-dihydroxy-3-oxo-1-benzofuran-2(3H)-ylidene)methyl]-1-methyl-1H-indol-4-yl}phenyl)-1,1-dimethylurea]
0.0615 µM | 2.68 µM | 0.267 µM | Cn1cc(/C=C2\Oc3cc(O)cc(O)c3C2=O)c2c(-c3ccc(NC(=O)NC4CC4)cc3)cccc21 [Example 401, 1-cyclopropyl-3-(4-{3-[(Z)-(4,6-dihydroxy-3-oxo-1-benzofuran-2(3H)-ylidene)methyl]-1-methyl-1H-indol-4-yl}phenyl)urea]
0.0385 µM | 2.39 µM | 1.15 µM | COC(=O)Nc1ccc(-c2cccc3c2c(/C=C2\Oc4cc(O)cc(O)c4C2=O)cn3C)cc1 [Example 391, Methyl (4-{3-[(Z)-(4,6-Dihydroxy-3-oxo-1-benzofuran-2(3H)-ylidene)methyl]-1-methyl-1H-indol-4-yl}phenyl)carbamate]
0.03 µM | 0.448 µM | 0.547 µM | Cn1cc(/C=C2\Oc3cc(O)cc(O)c3C2=O)c2c(-c3ccc(C(=O)N4CCCC4)cc3)cccc21 [Example 396, (2Z)-4,6-Dihydroxy-2-({1-methyl-4-[4-(pyrrolidin-1-ylcarbonyl)phenyl]-1H-indol-3-yl}methylene)-1-benzofuran-3(2H)-one]
0.029 µM | 1.09 µM | 0.561 µM | Cn1cc(/C=C2\Oc3cc(O)cc(O)c3C2=O)c2c(-c3ccc(O)cc3)cccc21 [Example 379, (2Z)-4,6-Dihydroxy-2-{[4-(4-hydroxyphenyl)-1-methyl-1H-indol-3-yl]methylene}-1-benzofuran-3(2H)-one]
0.028 µM | 9.5 µM | 2.81 µM | Cn1cc(/C=C2\Oc3cc(O)cc(O)c3C2=O)c2c(-c3cccnc3)cccc21 [Example 375, (2Z)-4,6-Dihydroxy-2-[(1-methyl-4-pyridin-3-yl-1H-indol-3-yl)methylene]-1-benzofuran-3(2H)-one]
0.0235 µM | 2.52 µM | 0.608 µM | CNC(=O)Nc1ccc(-c2cccc3c2c(/C=C2\Oc4cc(O)cc(O)c4C2=O)cn3C)cc1 [Example 393, 1-(4-{3-[(Z)-(4,6-Dihydroxy-3-oxo-1-benzofuran-2(3H)-ylidene)methyl]-1-methyl-1H-indol-4-yl}phenyl)-3-methylurea]
0.02 µM | 8.53 µM | 1.84 µM | Cn1cc(/C=C2\Oc3cc(O)cc(O)c3C2=O)c2c(-c3ccc(C#N)nc3)cccc21 [Example 397, 5-{3-[(Z)-(4,6-Dihydroxy-3-oxo-1-benzofuran-2(3H)-ylidene)methyl]-1-methyl-1H-indol-4-yl}pyridine-2-carbonitrile]
0.018 µM | 7.63 µM | 2.79 µM | CN(C)c1ccc(-c2cccc3c2c(/C=C2\Oc4cc(O)cc(O)c4C2=O)cn3C)cc1 [Example 385, (2Z)-2-({4-[4-(Dimethylamino)phenyl]-1-methyl-1H-indol-3-yl}methylene)-4,6-dihydroxy-1-benzofuran-3(2H)-one]
0.017 µM | > 7.18 µM | 0.453 µM | CNC(=O)c1ccc(-c2cccc3c2c(/C=C2\Oc4cc(O)cc(O)c4C2=O)cn3C)cc1 [Example 392, 4-{3-[(Z)-(4,6-dihydroxy-3-oxo-1-benzofuran-2(3H)-ylidene)methyl]-1-methyl-1H-indol-4-yl}-N-methylbenzamide]
0.0123 µM | 2.25 µM | 0.75 µM | CC(=O)Nc1ccc(-c2cccc3c2c(/C=C2\Oc4cc(O)cc(O)c4C2=O)cn3C)cc1 [Example 383, N-(4-{3-[(Z)-(4,6-Dihydroxy-3-oxo-1-benzofuran-2(3H)-ylidene)methyl]-1-methyl-1H-indol-4-yl}phenyl)acetamide]
0.0115 µM | 9.86 µM | 1.87 µM | CNc1ccc(-c2cccc3c2c(/C=C2\Oc4cc(O)cc(O)c4C2=O)cn3C)cc1 [Example 389, (2Z)-4,6-Dihydroxy-2-({1-methyl-4-[4-(methylamino)phenyl]-1H-indol-3-yl}methylene)-1-benzofuran-3(2H)-one]
0.007 µM | 4.07 µM | 0.496 µM | Cn1cc(/C=C2\Oc3cc(O)cc(O)c3C2=O)c2c(-c3ccc(C(N)=O)cc3)cccc21 [Example 377, 4-{3-[(Z)-(4,6-Dihydroxy-3-oxo-1-benzofuran-2(3H)-ylidene)methyl]-1-methyl-1H-indol-4-yl}benzamide]
